We go through 13 compounds from patent US12521393B2, “Cytotoxicity targeting chimeras for CCR2-expressing cells” (GLAXOSMITHKLINE INTELLECTUAL PROPERTY DEVELOPMENT LIMITED, priority 2021, dated 2026).

The test system of the test is endogenous target monocytes in human PBMC. The test can be described thus: PBMC ex vivo monocyte depletion flow cytometry assay (Example 200). To be noted: with anti-cotinine antibody (SEQ ID NO: 11/12), 18-24 hours, EC50 in molar, read-out: Ex Vivo Depletion Assay pEC50 (converted). The class given is cell-based. The protocol: A human PBMC (peripheral blood mononuclear cells) monocyte depletion flow cytometry assay was developed to screen compounds in a 384-well plate format. This assay incorporated endogenous natural killer cells to deplete endogenous target monocytes.
To screen compounds in the human PBMC monocyte depletion flow cytometry assay, 11-point dose-response curves were made from 1 mM stocks in neat DMSO by serially diluting an ARM compound of Formula (I) four-fold into a 384-well plate row-wise. These serially diluted compounds were then stamped into a flat bottom polypropylene 384-well plate (Greiner Bio-One) at 100 nL/well. Fifty microliters of 30 μg/mL anti-cotinine antibody having a heavy chain sequence of SEQ ID NO: 11 and a light chain sequence of SEQ ID NO: 12 (rabbit variable region with human IgG1 Fc domain containing a DE mutation (S239D/1332E)) that had been diluted in assay medium (RPMI 1640 (Gibco) containing 10% fetal bovine serum (Gibco), 1% Glutamax (Gibco) and 1% sodium pyruvate (Corning) was added to the wells of the plate. The plate was centrifuged for 1 min at 500 rpm (revolutions per minute) and then shaken for 5 min at room temperature. The plate was incubated for 15 minutes at 37° C./5% CO2.
Frozen PBMC cells (HemaCare BioResearch) were thawed and centrifuged at 1,200 rpm for 4 minutes. The cells were diluted to a cell density of 2×10^6 cells/mL in assay medium. Fifty microliters of the diluted cells were added to the wells of the plate. The plate was centrifuged for 1 min at 500 rpm and incubated for 18-24 hours at 37° C./5% CO2.
After 18-24 hours incubation, 2 μL of 6.25 μg human FC block (BD Pharmingen) that was diluted in assay medium was added to the wells of the plate. The plate was centrifuged for 1 minute at 500 rpm and then incubated at room temperature for 15 minutes. Five microliters of 750 nM Helix NP NIR (Biolegend) that had been diluted in assay medium was added to the wells of the plate. Nine microliters of antibody cocktail containing 1/5 diluted fluorescein isothiocyanate (FITC) labeled anti-CD45 antibody (Beckman Coulter), PC7 labeled anti-CD14 antibody (Beckman Coulter) and phyocoerythrin (PE) anti-CD4 antibody (Beckman Coulter) was then added to the wells of the plate. The plate was centrifuged for 1 min at 500 rpm and incubated for 30 minutes at 4-8° C. Samples from the plate were run on BD FACS Canto II flow cytometer and data was analyzed using FlowJo software.
ARMs compounds of Formula (I) of the invention were tested for the ability to deplete monocytes in the above assay in one or more experimental runs and the results are shown in Table 3 below. Potency of the compounds of the invention is reported as a pEC50 value. The pEC50 value is the negative log of the EC50 value, wherein the EC50 value is the half maximal effective concentration measured in molar (M). For compounds tested in more than one experimental run, the pEC50 value is reported as an average or as the individual values measured
Consider `CC(C)N(C)[C@@H]1CC[C@H](N2CC[C@H](Nc3ncnc4ccc(C(F)(F)F)cc34)C2=O)[C@H](NC(=O)CCCNC(=O)CCCC(=O)NCCCOCCCNC(=O)C2CC(=O)N(C)C2c2cccnc2)C1` (stereo in doubt) [Example 21, N1-(4-(((1R,2S,5R)-5-(Isopropyl(methyl)amino)-2-((S)-2-oxo-3-((6-(trifluoromethyl)quinazolin-4-yl)amino)pyrrolidin-1-yl)cyclohexyl)amino)-4-oxobutyl)-N5-(3-(3-((2S,3S)-1-methyl-5-oxo-2-(pyridin-3-yl)pyrrolidine-3-carboxamido)propoxy)propyl)glutaramide], for which the EC50 was 0.631 nM.

`CC(C)N(C)[C@@H]1CC[C@H](N2CC[C@H](Nc3ncnc4ccc(C(F)(F)F)cc34)C2=O)[C@H](NC(=O)C23CCC(NC(=O)CCOCCOCCOCCNC(=O)[C@H]4CC(=O)N(C)[C@@H]4c4cccnc4)(CC2)CC3)C1` [Example 25, (2S,3S)-N-(2-(2-(2-(3-((4-(((1R,2S,5R)-5-(Isopropyl(methyl)amino)-2-((S)-2-oxo-3-((6-(trifluoromethyl)quinazolin-4-yl)amino)pyrrolidin-1-yl)cyclohexyl)carbamoyl)bicyclo[2.2.2]octan-1-yl)amino)-3-oxopropoxy)ethoxy)ethoxy)ethyl)-1-methyl-5-oxo-2-(pyridin-3-yl)pyrrolidine-3-carboxamide]: the EC50 was 2 nM.

Take `CC(C)N(C)[C@@H]1CC[C@H](N2CC[C@H](Nc3ncnc4ccc(C(F)(F)F)cc34)C2=O)[C@H](NC(=O)[C@H]2C[C@H](NC(=O)CCOCCNC(=O)CCOCCNC(=O)[C@@H]3CC(=O)N(C)[C@H]3c3cccnc3)C2)C1` [Example 45, (2S,3S)-N-(2-(3-((2-(3-(((1R,3r)-3-(((1R,2S,5R)-5-(Isopropyl(methyl)amino)-2-((S)-2-oxo-3-((6-(trifluoromethyl)quinazolin-4-yl)amino)pyrrolidin-1-yl)cyclohexyl)carbamoyl)cyclobutyl)amino)-3-oxopropoxy)ethyl)amino)-3-ixopropoxy)ethyl)-1-methyl-5-oxo-2-(pyridin-3-yl)pyrrolidine-3-carboxamide]: the EC50 is 2 nM.

On to `CC(C)N(C)[C@@H]1CC[C@H](N2CC[C@H](Nc3ncnc4ccc(C(F)(F)F)cc34)C2=O)[C@H](NC(=O)CCCOC[C@H]2CC[C@H](COCCNC(=O)[C@H]3CC(=O)N(C)[C@@H]3c3cccnc3)CC2)C1` [Example 58, (2S,3S)-N-(2-(((1R,4S)-4-((4-(((1R,2S,5R)-5-(Isopropyl(methyl)amino)-2-((S)-2-oxo-3-((6-(trifluoromethyl)quinazolin-4-yl)amino)pyrrolidin-1-yl)cyclohexyl)amino)-4-oxobutoxy)methyl)cyclohexyl)methoxy)ethyl)-1-methyl-5-oxo-2-(pyridin-3-yl)pyrrolidine-3-carboxamide], for which the EC50 was 7.94 nM.

On to `CC(C)N(C)[C@@H]1CC[C@H](N2CC[C@H](Nc3ncnc4ccc(C(F)(F)F)cc34)C2=O)[C@H](NC(=O)CCCOCC23CCC(COCCNC(=O)[C@H]4CC(=O)N(C)[C@@H]4c4cccnc4)(CC2)CC3)C1` [Example 59], for which the EC50 was 1.58 nM.

As for `CC(C)N(C)[C@@H]1CC[C@H](N2CC[C@H](Nc3ncnc4ccc(C(F)(F)F)cc34)C2=O)[C@H](NC2CCC(C(=O)NCCOCCOCCNC(=O)[C@H]3CC(=O)N(C)[C@@H]3c3cccnc3)CC2)C1` (stereo partly drawn) [Example 68, (2S,3S)-N-(2-(2-(2-(4-(((1R,2S,5R)-5-(Isopropyl(methyl)amino)-2-((S)-2-oxo-3-((6-(trifluoromethyl)quinazolin-4-yl)amino)pyrrolidin-1-yl)cyclohexyl)amino)cyclohexane-1-carboxamido)ethoxy)ethoxy)ethyl)-1-methyl-5-oxo-2-(pyridin-3-yl)pyrrolidine-3-carboxamide], the EC50 was 100000 nM.

Take `CC(C)N(C)[C@@H]1CC[C@H](N2CC[C@H](Nc3ncnc4ccc(C(F)(F)F)cc34)C2=O)[C@H](NC(=O)COCCNC(=O)CNC(=O)COCCOCCNC(=O)[C@H]2CC(=O)N(C)[C@@H]2c2cccnc2)C1` [Example 78, (2S,3S)-N-(1-(((1R,2S,5R)-5-(Isopropyl(methyl)amino)-2-((S)-2-oxo-3-((6-(trifluoromethyl)quinazolin-4-yl)amino)pyrrolidin-1-yl)cyclohexyl)amino)-1,7,10-trioxo-3,12,15-trioxa-6,9-diazaheptadecan-17-yl)-1-methyl-5-oxo-2-(pyridin-3-yl)pyrrolidine-3-carboxamide]: the EC50 is 2.51 nM.

With `CC(C)N(C)[C@@H]1CC[C@H](N2CC[C@H](Nc3ncnc4ccc(C(F)(F)F)cc34)C2=O)[C@H](NC(=O)COCC(=O)N2CCN(C(=O)N3CCN(C(=O)COCCNC(=O)[C@H]4CC(=O)N(C)[C@@H]4c4cccnc4)CC3)CC2)C1` [Example 84, (2S,3S)-N-(2-(2-(4-(4-(2-(2-(((1R,2S,5R)-5-(isopropyl(methyl)amino)-2-((S)-2-oxo-3-((6-(trifluoromethyl)quinazolin-4-yl)amino)pyrrolidin-1-yl)cyclohexyl)amino)-2-oxoethoxy)acetyl)piperazine-1-carbonyl)piperazin-1-yl)-2-oxoethoxy)ethyl)-1-methyl-5-oxo-2-(pyridin-3-yl)pyrrolidine-3-carboxamide], the EC50 was 1 nM.

With `CC(C)N(C)[C@@H]1CC[C@H](N2CC[C@H](Nc3ncnc4ccc(C(F)(F)F)cc34)C2=O)[C@H](NC(=O)C2CCN(C3CCN(C(=O)CCCCCNC(=O)[C@H]4CC(=O)N(C)[C@@H]4c4cccnc4)CC3)CC2)C1` [Example 87, N-((1R,2S,5R)-5-(Isopropyl(methyl)amino)-2-((S)-2-oxo-3-((6-(trifluoromethyl)quinazolin-4-yl)amino)pyrrolidin-1-yl)cyclohexyl)-1'-(6-((2S,3S)-1-methyl-5-oxo-2-(pyridin-3-yl)pyrrolidine-3-carboxamido)hexanoyl)-[1,4'-bipiperidine]-4-carboxamide], the EC50 is 0.398 nM.

Consider `CC(C)N(C)[C@@H]1CC[C@H](N2CC[C@H](Nc3ncnc4ccc(C(F)(F)F)cc34)C2=O)[C@H](NC(=O)c2cc(OCCOCCOCCOCCOCCNC(=O)[C@H]3CC(=O)N(C)[C@@H]3c3cccnc3)ccn2)C1` [Example 88, N-((1R,2S,5R)-5-(Isopropyl(methyl)amino)-2-((S)-2-oxo-3-((6-(trifluoromethyl)quinazolin-4-yl)amino)pyrrolidin-1-yl)cyclohexyl)-4-((1-((2S,3S)-1-methyl-5-oxo-2-(pyridin-3-yl)pyrrolidin-3-yl)-1-oxo-5,8,11,14-tetraoxa-2-azahexadecan-16-yl)oxy)picolinamide], for which the EC50 is 7.94 nM.

On to `CC(C)N(C)[C@@H]1CC[C@H](N2CC[C@H](Nc3ncnc4ccc(C(F)(F)F)cc34)C2=O)[C@H](NC(=O)c2cc(OCCOCCOCCOCCNC(=O)[C@H]3CC(=O)N(C)[C@@H]3c3cccnc3)ccn2)C1` [Example 89, N-((1R,2S,5R)-5-(Isopropyl(methyl)amino)-2-((S)-2-oxo-3-((6-(trifluoromethyl)quinazolin-4-yl)amino)pyrrolidin-1-yl)cyclohexyl)-4-((1-((2S,3S)-1-methyl-5-oxo-2-(pyridin-3-yl)pyrrolidin-3-yl)-1-oxo-5,8,11-trioxa-2-azatridecan-13-yl)oxy)picolinamide], for which the EC50 was 25.1 nM.

As for `CC(C)N(C)[C@@H]1CC[C@H](N2CC[C@H](Nc3ncnc4ccc(C(F)(F)F)cc34)C2=O)[C@H](NC(=O)c2ccc(OC3CCN(CCOCCOCCNC(=O)[C@H]4CC(=O)N(C)[C@@H]4c4cccnc4)CC3)cc2)C1` [Example 91], the EC50 was 0.794 nM.

For `CC(C)N(C)[C@@H]1CC[C@H](N2CC[C@H](Nc3ncnc4ccc(C(F)(F)F)cc34)C2=O)[C@H](NC(=O)c2cnn(C3CCN(CCOCCOCCNC(=O)[C@H]4CC(=O)N(C)[C@@H]4c4cccnc4)CC3)c2)C1` [Example 92, N-((1R,2S,5R)-5-(Isopropyl(methyl)amino)-2-((S)-2-oxo-3-((6-(trifluoromethyl)quinazolin-4-yl)amino)pyrrolidin-1-yl)cyclohexyl)-1-(1-(2-(2-(2-((2S,3S)-1-methyl-5-oxo-2-(pyridin-3-yl)pyrrolidine-3-carboxamido)ethoxy)ethoxy)ethyl)piperidin-4-yl)-1H-pyrazole-4-carboxamide], the EC50 is 25.1 nM.
